Assays:
[1] = biological target: T1, CAAX GG transferase (Rattus norvegicus, UniProt P53610+Q04631); assay: Inhibition of CAAX GG transferase (geranylgeranyltransferase); format: biochemical
T1 construct: partially purified CAAX GG transferase; from tissue
Excerpt: FIG. 1 compares the inhibitory activity of compound 27B (denoted as BG269B in the figure) on protein prenyltransferases. […] Two other prenyltransferases, both of which transfer 20-carbon geranylgeranyl (GG) groups, have been identified in rat brain. One of thesse, CAAX GG transferase, attaches GG groups to proteins that terminate in CAAX sequences in which X is leucine.
The conditions used to assay the inhibition of CAAX farnesyltransferase are identical to those described above for the in vitro, assay described in Example 121. In FIG. 1B the assay mixture contained, in a final volume of 50 μl, 50 mM sodium Hepes (pH 7.2), 5 mM MgC12, 5 mM DTT, 0.3 mM Nonidet P-40, 0.2% octyl β-glucoside, 1% DMSO, 0.5 μM all trans [3H]geranylgeranyl pyrophosphate (33,000 dpm/pmol; ARC, Inc.), 5 μM recombinant p21^H-rasCVLL, 6.3 μg partially purified CAAX GG transferase (see Seabra, M. C., Reiss, Y., Casey, P. J., Brown, M. S., and Goldstein, J. L. Cell 268, 4055 (1993)) and varying concentrations of the indicated inhibitor. In FIG. 1C, the assay mixture contained in a final volume of 50 μl, 50 mM sodium Hepes (pH 7.2), 5 mM MgCl2, 5 mM DTT, 0.3 mM Nonidet P-40, 0.2% octyl β-D-glucoside, 1% DMSO, 0.5 μM all trans [3H]geranylgeranyl pyrophosphate (33,000 dpm/pmol; ARC, Inc.), 2 μM recombinant Rab1A, 2 ng each of purified Components A and B of Rab GG transferase (see Seabra, M. C., Goldstein, J. L., Sudhof, T. C., and Brown, M. S. J. Biol. Chem. 267, 14497 (1992)) and varying concentrations of the indicated inhibitor.
Each assay was carried out as described in Examples 121 and 122.

[2] = tested on: nuclear lamins A and B in Met18b-2 cells; assay: [3H]mevalonate labeling of farnesylated nuclear lamins in Met18b-2 cells; format: cell-based, Chinese hamster; details: 250 μM; FIG. 3
Excerpt: To study farnesylation in intact cells we used Met18b-2 cells, a line of Chinese hamster ovary (CHO) cells that takes up [3H]mevalonate efficiently (see Faust, J., and Krieger, M. J. Biol. Chem. 262, 1966 (1987)) owing to the production of a mevalonate transport protein (see Kim, C. M., Goldstein, J. L., Brown, M. S. J. Biol. Chem. 267, 23113 (1992)). The [3H]mevalonate is converted by the cells into [3H]farnesyl pyrophosphate and [3H]geranylgeranyl pyrophosphate, which are then attached to proteins (Kim, C. M., Goldstein, J. L., Brown, M. S. J. Biol. Chem. 267, 23113 (1992)). In the assay, stock cultures of Met18b-2 cells were seeded at a density of 3-105 cells per 60 mm dish in 3 ml of medium A (Dulbecco's modified Eagle medium/Ham's F12 medium (1:1, v/v) containing 100 U/ml penicillin and 100 μg/ml streptomycin) supplemented with 5% (v/v) fetal calf serum (FCS). On day 3, each monolayer was refed with 1 ml medium A supplemented with 1% FCS (dialyzed against 0.15 M NaCl). At this point the cells were treated with 100 μM compactin (see Brown, M. S., Faust, J. R., Goldstein, J. L., Kaneko, I., and Endo, A. J. Biol. Chem. 253, 1121 (1978)) which blocks the synthesis of unlabeled mevalonate within the cells. […] Protein concentrations were determined using the BCA protein assay reagent (Pierce) according to the manufacturer's instructions. […]

T1 sequence (P53610 whole entry, one chain of several): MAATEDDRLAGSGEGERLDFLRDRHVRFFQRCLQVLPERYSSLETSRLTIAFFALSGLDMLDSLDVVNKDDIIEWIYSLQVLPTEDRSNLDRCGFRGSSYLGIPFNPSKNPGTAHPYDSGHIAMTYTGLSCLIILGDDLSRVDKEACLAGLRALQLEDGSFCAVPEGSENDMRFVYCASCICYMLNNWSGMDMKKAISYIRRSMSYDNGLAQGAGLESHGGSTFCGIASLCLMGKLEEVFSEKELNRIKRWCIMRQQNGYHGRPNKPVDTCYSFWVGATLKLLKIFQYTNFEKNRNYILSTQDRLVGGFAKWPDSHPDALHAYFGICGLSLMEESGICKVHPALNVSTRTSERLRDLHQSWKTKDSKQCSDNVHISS

Compound: CSCC[C@H](NC(=O)CN1C(=O)C(N(C)C(=O)[C@@H](N)CS)N=C(c2ccccc2)c2ccccc21)C(=O)O (single isomer, unassigned) [27B]
- IC50 ([1]; FIG. 1B, p21H-rasCVLL substrate, read-out: IC0.5 CAAX GG transferase): 35 nM
- fold higher concentration for CAAX GG transferase than for CAAX farnesyltransferase ([1]; selectivity vs CAAX farnesyltransferase): more than 100 fold
- labeling of farnesylated lamins (F-NL) [2]: reduced moderately the labeling of the farnesylated lamins

Source: patent US5843941A, “Ras farnesyl transferase inhibitors” (Genentech, Inc., priority 1994, dated 1998)
